According to EP0920324B1, “PURE BIOLOGICALLY ACTIVE COLISTIN, ITS COMPONENTS AND A COLISTIN FORMULATION FOR TREATMENT OF PULMONARY INFECTIONS” (PATHOGENESIS CORPORATION, priority 1996, dated 1998):
Where a SMILES comes first, the peptide text is derived from it. Bridges are numbered along the chain shown (N, C = ends). [ ]: non-standard residue; d: D form. The star is where a group is joined. Octanoyl(6-Me) = CCC(C)CCCCC(=O)*; Dab = NCC[CH](N)C(=O)O

How the values were obtained:
[1] = Gravimetric titration with HCl to determine pKa
Procedure: 107 mg of dry free base was suspended in 10.7 ml of deionized water and 1.21 M HCl was added under constant measurement of pH.
In order to determine the pKa of colistin component IV by titration, 107 mg of dry free base was suspended in 10.7 ml of deionized water in a 20 ml glass screwcap vial and stirred by magnetic stirrer. A calibrated Beckman Phi-10 pH meter with a Futura Plus combination electrode was placed in the suspension and the pH of the solution was monitored during the addition of 1.21 M HCl.

[2] = human, in vivo; cited from earlier work
[3] = human, in vivo, 1 h; cited from earlier work
Pseudomonas aeruginosa = test: Time kill kinetic studies (bactericidal activity); format: cell-based
Procedure: Henry D. Isenberg, ASM, Washington, DC (1992). The exact procedure is described in Example 14.
Briefly, tests were similar to those used for determining MICs, except that the final test volume was larger (10 mL) to allow sampling at various time points. […] Cultures were incubated at 37°C. At initial set-up and at various time-points, cultures were plated, with or without further dilution, onto sheep blood agar plates. Plates were incubated for 18-24 hours, and the number of CFU/mL was determined and plotted to determine the percentage of surviving organisms and the time required to achieve 99.9% killing. Results are seen in Figure 15.
Colony-forming unit (CFU) per ml were determined and plotted against drug exposure time in hours.
Time kill kinetic studies were performed as described in (Antimicrobial Susceptibility Testing, Section 5.16. Tests to assess bactericidal activity, in Clinical Microbiology Procedure Handbook (supra).
Tests were set in the same way used for determining MICs (Example 13), except that the final test volume was larger (10 mL) to allow sampling at various time points. Cultures were incubated at 37°C. At initial set-up and at various desired time-points, cultures were sampled and plated (with or without further dilution) onto sheep blood agar plates. Plates were incubated for 18-24 hours, and the number of CFU/mL was determined and plotted to determine the percentage of surviving organisms and the time required to achieve 99.9% killing.

[4] = Solution pH monitored over time after dissolution; format: physicochemical; conditions: 10.0, 15.0 and 20.0 mg/ml in water
Procedure: These values correspond to concentrations of 3.7 mg/ml, 5.6 mg/ml and 7.4 mg/ml colistin base equivalent. Solution pH was monitored continuously at various times from 1 minute to 180 minutes and pH values and times were recorded.
Determination of component IV stability at physiologic pH was made by dissolving purified colistin component IV sulfate or hydrochloride at a concentration of 20 mg/ml in sterile water containing 120 mM NaCl. The solution was mixed and pH was monitored. A 10 N NaOH solution was used to adjust the solution pH to 6.95-7.00. Results are seen in Figure 16.
These values correspond to concentrations of 3.7 mg/ml, 5.6 mg/ml and 7.4 mg/ml colistin base equivalent. Solution pH was then monitored continuously using a Beckman Phi-10 pH meter fitted with a Beckman Futura Plus combination electrode calibrated at pH 4.0 and 7.0 as per manufacturer's instructions prior to use. At various times from 1 minute to 180 minutes, pH values and times were recorded.

[5] = human, in vivo, iv; cited from earlier work
[6] = Jet nebulization (Pari LC Jet nebulizer), aerosol characterized by laser diffraction particle analyzer; format: physicochemical
Procedure: Colistin component IV sulfate was dissolved in 120 mM sodium chloride, and the pH was adjusted to 7.0 with 1 molar sodium hydroxide.
Four ml of solution to be nebulized was placed in a Pari LC Jet nebulizer fitted with a Pulmonaide Compressor (DeVilbiss Model 5650D) with an air flow rate of 4-6 liters/minute. Aerosols generated are characterized by passing through a laser diffraction particle analyzer (Malvern Mastersizer X). Each formulation was analyzed multiple times to determine reproducibility of results, which were expressed as total obscuration time, mass median average diameter, and respirable fraction.
Results are shown in Figure 18, which is a comparison of the-times required for aerosolization of 4 mL of the three solutions. The two drug solutions were analyzed three times, and saline was analyzed four times. Bars show standard deviations of measurements.
Colistin component IV sulfate or hydrochloride formulations were as described above in Example 15.
Four ml of solution to be nebulized was placed in a Pari LC Jet nebulizer fitted with a Pulmonaide Compressor, DeVilbiss Model 5650D, with an air flow rate of 4-6 liters/minute. Aerosol generated was characterized by passing through a Malvern Mastersizer X laser diffraction particle analyzer. Each formulation was analyzed multiple times to determine reproducibility of results, which were expressed as total obscuration time, mass median particle diameter, and respirable fraction.
Mass median particle diameters were expressed as average ± standard deviation (n) for aerosols.
Average respirable fractions were calculated as average percentage of particles ranging from 1 micron to 6 microns in diameter within the aerosol over time.

[7] = average ± standard deviation, n = 3, 20 mg/ml solutions

Molecule | pKa ([1]; free base suspended in deionized water, titrated with 1.21 M HCl) | pKa ([1]; water) | patients reporting bronchoconstriction response as chest tightness [2] | drug converted to colistin in an hour [3] | eradication of the Pseudomonas aeruginosa organism (Pseudomonas aeruginosa; 8 µg/mL, at 4 hours of testing) | killing of test organism (Pseudomonas aeruginosa; 16 µg/mL, at 3 hours) | time at which over 5 logs killing was shown (Pseudomonas aeruginosa; 64µg/mL) | concentration required for a similar level of killing (over 5 logs within 2 hours) (Pseudomonas aeruginosa; freshly dissolved) | pH of solution within 3 minutes [4] | occurrence of nephrotoxicity symptoms [5] | occurrence of neurotoxicity symptoms [5] | mean aerosolization time ([6]; 4 mL of 20 mg/ml solution, colistin component IV sulfate in 120 mM NaCl, isotonic, pH balanced, colimycin in 1/4 N saline, n = 3) | average respirable fraction (particles ranging from 1 micron to 6 microns in diameter) [6, 7] | mass median particle diameter of the aerosol [6, 7]
CCC(C)CCCCC(=O)NC(CCN)C(=O)NC(C(=O)NC(CCN)C(=O)NC1CCNC(=O)C(C(C)O)NC(=O)C(CCN)NC(=O)C(CCN)NC(=O)C(CC(C)C)NC(=O)C(CC(C)C)NC(=O)C(CCN)NC1=O)C(C)O (centres unmarked) [colistin component IV] ({Octanoyl(6-Me)}-[Dab]T[Dab][Dab][Dab]LL[Dab][Dab]T; lactam 4-C; configuration not given here) | approximately 9.0 | ~9 |  |  |  |  |  |  |  |  |  |  |  | 
colimycin |  |  | approximately 65% | ~3% | did not, even at 4 hours of testing, eradicate the Pseudomonas aeruginosa organism | over 5 logs | 1.5 hours | 32 µg/ml | > 7.5 | about 5 % cases | about 29 % cases | 10.53 min | 58.77 ± 2.03 percentage | 4.11 ± 0.29 microns
